Results on 24 compounds are retold here after patent publication US12365664B2, “Small molecule inhibitors of SRC tyrosine kinase” (Dana-Farber Cancer Institute, Inc., priority 2019, dated 2025).

The target in one test is SRC (Homo sapiens (Human), UniProt P12931). In words: SelectScreen Kinase Profiling Services commercial assay (ThermoFisher), SRC. Type of test: biochemical.
In another test the target is YES1 (Homo sapiens (Human), UniProt P07947). Briefly: SelectScreen Kinase Profiling Services commercial assay (ThermoFisher), YES1. The class given is biochemical.
Chain of YES1 (P07947 whole entry): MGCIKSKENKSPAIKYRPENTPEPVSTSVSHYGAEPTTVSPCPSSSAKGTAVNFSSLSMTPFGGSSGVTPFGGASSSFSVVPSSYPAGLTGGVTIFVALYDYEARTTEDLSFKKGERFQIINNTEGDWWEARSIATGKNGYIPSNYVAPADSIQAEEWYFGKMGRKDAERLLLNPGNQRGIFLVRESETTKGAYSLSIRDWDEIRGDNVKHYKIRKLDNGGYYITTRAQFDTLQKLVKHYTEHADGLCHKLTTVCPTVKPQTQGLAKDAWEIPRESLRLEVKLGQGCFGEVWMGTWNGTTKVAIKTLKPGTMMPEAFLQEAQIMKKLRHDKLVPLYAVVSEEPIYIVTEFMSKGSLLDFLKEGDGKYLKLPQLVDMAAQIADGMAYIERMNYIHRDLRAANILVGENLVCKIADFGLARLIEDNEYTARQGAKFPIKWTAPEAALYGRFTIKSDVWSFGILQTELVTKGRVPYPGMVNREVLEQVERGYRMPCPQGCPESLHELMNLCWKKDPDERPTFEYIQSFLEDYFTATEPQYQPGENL

Chain of SRC (P12931 whole entry): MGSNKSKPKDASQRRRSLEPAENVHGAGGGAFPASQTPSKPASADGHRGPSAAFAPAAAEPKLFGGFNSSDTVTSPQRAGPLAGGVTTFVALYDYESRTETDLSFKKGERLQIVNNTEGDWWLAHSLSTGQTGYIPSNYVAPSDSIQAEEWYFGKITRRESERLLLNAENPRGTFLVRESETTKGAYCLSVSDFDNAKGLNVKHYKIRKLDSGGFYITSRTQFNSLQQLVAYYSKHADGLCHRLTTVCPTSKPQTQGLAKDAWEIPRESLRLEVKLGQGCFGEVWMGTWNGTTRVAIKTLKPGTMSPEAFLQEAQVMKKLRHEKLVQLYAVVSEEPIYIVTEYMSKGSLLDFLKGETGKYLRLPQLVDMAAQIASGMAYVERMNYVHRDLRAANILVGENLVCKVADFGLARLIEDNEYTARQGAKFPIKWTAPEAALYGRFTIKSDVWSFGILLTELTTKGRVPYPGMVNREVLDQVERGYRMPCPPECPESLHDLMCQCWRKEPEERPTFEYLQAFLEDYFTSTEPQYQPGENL

For `C=CC(=O)Nc1ccccc1Nc1nc(Nc2ccc(N3CCN(C)CC3)cc2)ncc1CC` [Compound 2, N-{2-[(5-ethyl-2-{[4-(4-methylpiperazin-1-yl)phenyl]amino}pyrimidin-4-yl)amino]phenyl}prop-2-enamide], the IC50 on SRC and against YES1 was 1 to 10 nM throughout. With `C=CC(=O)Nc1ccccc1Nc1nc(Nc2ccc(N3CCN(C)CC3)cc2)ncc1C` [Compound 4, N-{2-[(5-methyl-2-{[4-(4-methylpiperazin-1-yl)phenyl]amino}pyrimidin-4-yl)amino]phenyl}prop-2-enamide], the IC50 against SRC and against YES1 was 1 to 10 nM throughout. Turning to `C=CC(=O)Nc1ccccc1Nc1nc(Nc2ccc(N3CCN(C)CC3)cc2)ncc1-c1cccs1` [Compound 6, N-(2-((2-((4-(4-methylpiperazin-1-yl)phenyl)amino)-5-(thiophen-2-yl)pyrimidin-4-yl)amino)phenyl)acrylamide], the IC50 against SRC and against YES1 was 1 to 10 nM in each case. Turning to `C=CC(=O)Nc1ccccc1Nc1nc(Nc2ccc(N3CCN(C)CC3)cc2)ncc1-c1ccc(OC)nc1` [Compound 9, N-(2-((5-(6-methoxypyridin-3-yl)-2-((4-(4-methylpiperazin-1-yl)phenyl)amino)pyrimidin-4-yl)amino)phenyl)acrylamide], the IC50 against SRC and against YES1 was 1 to 10 nM each time.

For the compound `C=CC(=O)Nc1ccccc1Nc1nc(Nc2ccc(N3CCN(C)CC3)cc2)nc2ccsc12` [Compound 11, N-{2-[(2-{[4-(4-methylpiperazin-1-yl)phenyl]amino}thieno[3,2-d]pyrimidin-4-yl)amino]phenyl}prop-2-enamide], the IC50 against SRC and against YES1 was 1 to 10 nM each time. For the compound `C=CC(=O)Nc1ccccc1Nc1nc(Nc2ccc(N3CCN(C)CC3)cc2)nc(N)c1Cl` [Compound 13, N-{2-[(6-amino-5-chloro-2-{[4-(4-methylpiperazin-1-yl)phenyl]amino}pyrimidin-4-yl)amino]phenyl}prop-2-enamide], the IC50 against SRC lay within 10 to 100 nM; on YES1, 1 to 10 nM. On the same counts, the results for `C=CC(=O)Nc1ccccc1Nc1nc(Nc2ccc(N3CCN(C)CC3)cc2)nc2sccc12` [Compound 14, N-{2-[(2-{[4-(4-methylpiperazin-1-yl)phenyl]amino}thieno[2,3-d]pyrimidin-4-yl)amino]phenyl}prop-2-enamide] are 100 to 1000 nM and 10 to 100 nM. In the case of `C=CC(=O)Nc1ccccc1Nc1nc(Nc2ccc(N3CCN(C)CC3)cc2)ncc1OCc1ccc(C)cc1` [Compound 15, N-(2-((5-((4-methylbenzyl)oxy)-2-((4-(4-methylpiperazin-1-yl)phenyl)amino)pyrimidin-4-yl)amino)phenyl)acrylamide], the IC50 at SRC and against YES1 was 1 to 10 nM in each case. Take `C=CC(=O)Nc1ccccc1Nc1nc(Nc2ccc(N3CCN(C)CC3)cc2)ncc1OCc1c(C)cccc1Cl` [Compound 17, N-(2-((5-((2-chloro-6-methylbenzyl)oxy)-2-((4-(4-methylpiperazin-1-yl)phenyl)amino)pyrimidin-4-yl)amino)phenyl)acrylamide]: the IC50 against SRC lay within 1 to 10 nM. For the compound `C=CC(=O)Nc1ccccc1Nc1nc(Nc2ccc(N3CCN(C)CC3)cc2)ncc1C(=O)NCc1ccc(Oc2ccccc2)cc1` [Compound 19, 2-{[4-(4-methylpiperazin-1-yl)phenyl]amino}-N-[(4-phenoxyphenyl)methyl]-4-{[2-(prop-2-enamido)phenyl]amino}pyrimidine-5-carboxamide], the IC50 against SRC and on YES1 was greater than 10000 nM each time. In the case of `C=CC(=O)Nc1ccccc1Nc1nc(Nc2ccc(N3CCN(C)CC3)cc2)ncc1C(=O)Nc1c(C)cccc1C` [Compound 28, N-(2,6-dimethylphenyl)-2-{[4-(4-methylpiperazin-1-yl)phenyl]amino}-4-{[2-(prop-2-enamido)phenyl]amino}pyrimidine-5-carboxamide], the IC50 was 1 to 10 nM on SRC and less than 1 nM against YES1.

On SRC, `C=CC(=O)Nc1ccccc1Nc1nc(Nc2ccc(N3CCN(C)CC3)cc2)ncc1C(=O)Nc1c(C)cc(C(=O)O)cc1Cl` [Compound 30, 3-chloro-5-methyl-4-(2-{[4-(4-methylpiperazin-1-yl)phenyl]amino}-4-{[2-(prop-2-enamido)phenyl]amino}pyrimidine-5-amido)benzoic acid] registered an IC50 greater than 10000 nM. For `C=CC(=O)Nc1cccc(C)c1Nc1nc(Nc2ccc(N3CCN(C)CC3)cc2)ncc1Cl` [Compound 31, N-{2-[(5-chloro-2-{[4-(4-methylpiperazin-1-yl)phenyl]amino}pyrimidin-4-yl)amino]-3-methylphenyl}prop-2-enamide], the figures for the IC50 at SRC and against YES1 were 1000 to 10000 nM and 100 to 1000 nM, respectively. For `C=CC(=O)Nc1ccc(C)cc1Nc1nc(Nc2ccc(N3CCN(C)CC3)cc2)ncc1Cl` [Compound 32, N-{2-[(5-chloro-2-{[4-(4-methylpiperazin-1-yl)phenyl]amino}pyrimidin-4-yl)amino]-4-methylphenyl}prop-2-enamide] the same measures were 10 to 100 nM and 1 to 10 nM. Regarding `C=CC(=O)Nc1ccc(C)cc1Nc1nc(Nc2ccc(N3CCN(C)CC3)cc2)ncc1C(=O)Nc1c(C)cccc1Cl` [Compound 35, N-(2-chloro-6-methylphenyl)-4-{[5-methyl-2-(prop-2-enamido)phenyl]amino}-2-{[4-(4-methylpiperazin-1-yl)phenyl]amino}pyrimidine-5-carboxamide], the IC50 against SRC fell in the range of 10 to 100 nM.

Turning to `C=CC(=O)Nc1c(F)cccc1Nc1nc(Nc2ccc(N3CCN(C)CC3)cc2)ncc1Cl` [Compound 39, N-{2-[(5-chloro-2-{[4-(4-methylpiperazin-1-yl)phenyl]amino}pyrimidin-4-yl)amino]-6-fluorophenyl}prop-2-enamide], at SRC, the IC50 lay within 1 to 10 nM. On the same count and under the same terms, the value for `C=CC(=O)Nc1cc(F)ccc1Nc1nc(Nc2ccc(N3CCN(C)CC3)cc2)ncc1Cl` [Compound 40, N-{2-[(5-chloro-2-{[4-(4-methylpiperazin-1-yl)phenyl]amino}pyrimidin-4-yl)amino]-5-fluorophenyl}prop-2-enamide] was 1 to 10 nM.

`C=CC(=O)Nc1cccc(F)c1Nc1nc(Nc2ccc(N3CCN(C)CC3)cc2)ncc1C(=O)Nc1c(C)cccc1Cl` [Compound 42, N-(2-chloro-6-methylphenyl)-4-{[2-fluoro-6-(prop-2-enamido)phenyl]amino}-2-{[4-(4-methylpiperazin-1-yl)phenyl]amino}pyrimidine-5-carboxamide]: the IC50 against SRC was 1 to 10 nM; at YES1, less than 1 nM. For `C=CC(=O)Nc1ccc(C)cc1Nc1nc(Nc2ccc(N3CCN(C)CC3)cc2)nc2ccsc12` [Compound 46, N-{4-methyl-2-[(2-{[4-(4-methylpiperazin-1-yl)phenyl]amino}thieno[3,2-d]pyrimidin-4-yl)amino]phenyl}prop-2-enamide] the same measures were 100 to 1000 nM and 10 to 100 nM. For `C=CC(=O)Nc1ccc(C)cc1Nc1nc(Nc2ccc(N3CCN(C)CC3)cc2)nc2ccoc12` [Compound 47, N-{4-methyl-2-[(2-{[4-(4-methylpiperazin-1-yl)phenyl]amino}furo [3,2-d]pyrimidin-4-yl)amino]phenyl}prop-2-enamide] the same measures were 100 to 1000 nM and 10 to 100 nM. Consider `C=CC(=O)Nc1cccc(CNc2nc(Nc3ccc(N4CCN(C)CC4)cc3)ncc2C(=O)Nc2c(C)cccc2Cl)c1` [Compound 49], for which the IC50 at SRC is 10 to 100 nM.

Take `C=CC(=O)Nc1ccccc1CNc1nc(Nc2ccc(N3CCN(C)CC3)cc2)ncc1C(=O)Nc1c(C)cccc1Cl` [Compound 50]: the IC50 on SRC was 1 to 10 nM. Same read-out and setting: the value for `C=CC(=O)Nc1ccc(CNc2nc(Nc3ccc(N4CCN(C)CC4)cc3)ncc2C(=O)Nc2c(C)cccc2Cl)cc1` [Compound 51] was 10 to 100 nM. As for `C=CC(=O)Nc1ccccc1Nc1nc(Nc2ccc(N3CCN(C)CC3)cc2)ncc1Cl` [SM1-71, reference compound], the half-maximal inhibitory concentration (IC50) on SRC and against YES1 was 1 to 10 nM each time.
